Earlier results in patent US20150087671A1, “LOW BURST SUSTAINED RELEASE LIPOPHILIC AND BIOLOGIC AGENT COMPOSITIONS” (Micell Technologies, Inc., priority 2012, published 2015).
Values belong to the compound of their own block, whether it stands above or below them.

How the values were obtained:
[1] = molecular target: mTOR (Homo sapiens, UniProt P42345)
[2] = system: phosphorylation of AKT T308
[3] = system: PI3K/mTOR; settings: read-out: IC50, dual PI3K/mTOR inhibitor (target not specified further)
[4] = system: NCI-60 cell lines panel
[5] = system: PDGFR

IC50 [1]: 9 nM
SMILES: c1cncc(CN2CCC(n3ncc4c(N5CCOCC5)nc(-c5ccc6[nH]ccc6c5)nc43)CC2)c1 [WAY-600]

IC50 [1]: 5 nM
SMILES: COC(=O)Nc1ccc(-c2nc(N3CCOCC3)c3cnn(C4CCN(C(=O)OC)CC4)c3n2)cc1 [WYE-354]

IC50 [1]: 0.19 nM
SMILES: CNC(=O)Nc1ccc(-c2nc(N3CC4CCC(C3)O4)c3cnn(C4CCC5(CC4)OCCO5)c3n2)cc1 [WYE-125132]

More lines, now with the values behind:

SMILES: CO[C@H]1C[C@@H]2CC[C@@H](C)[C@@](O)(O2)C(=O)C(=O)N2CCCC[C@H]2C(=O)O[C@H]([C@H](C)C[C@@H]2CC[C@@H](O)[C@H](OC)C2)CC(=O)[C@H](C)/C=C(\C)[C@@H](O)[C@@H](OC)C(=O)[C@H](C)C[C@H](C)/C=C/C=C/C=C/1C [Rapamycin, rapamycin]
bioavailability (Rapamune oral tablets or solution): < 14%
blood concentrations (once daily oral dosing, immunosuppressive dose 2 or 5 mg daily): 6 to 50 ng/mL

SMILES: COc1ccc(-c2cc3c(C)nc(N)nc3n([C@H]3CC[C@H](OCCO)CC3)c2=O)cn1 [PF-04691502]
IC50 [2]: 7.5 nM

SMILES: COc1ccc(-c2ccc3ncc4c(c3c2)n(-c2ccc(N3CCNCC3)c(C(F)(F)F)c2)c(=O)n4C)cn1 [NVP-BGT226]
IC50 [3]: 1 nM

SMILES: COc1ccc(COc2cc3oc(=O)c4cc(C(C)O)ccc4c3cc2OC)cc1 (stereo not shown) [Palomid 529]
GI50 [4]: < 35000 nM

SMILES: CO[C@H]1C[C@@H]2CC[C@@H](C)[C@@](O)(O2)C(=O)C(=O)N2CCCC[C@H]2C(=O)O[C@H]([C@H](C)C[C@@H]2CC[C@@H](OCCO)[C@H](OC)C2)CC(=O)[C@H](C)/C=C(\C)[C@@H](O)[C@@H](OC)C(=O)[C@H](C)C[C@H](C)/C=C/C=C/C=C/1C [Everolimus, 40-O-(2-Hydroxyethyl)rapamycin]
IC50 [1]: 0.63 nM

SMILES: Nc1ncnc2c1c(-c1cnc3[nH]ccc3c1)nn2C1CCCC1 [PP121]
IC50 [5]: 2 nM
